Several values for one entry are separate records, joined by “and”; a condition that tells them apart may be missing. Equal values may be shown once. Read-outs that look alike come from different tables or passages of the source. Positions of bridges follow the written chain, without caps; N, C: chain ends. Non-standard residues stand in square brackets, D forms with d. Residues, ends and D or L forms follow the SMILES beside them. *: point of attachment. DOTA = O=C(O)CN1CCN(CC(=O)O)CCN(CC(=O)*)CCN(CC(=O)O)CC1; Cha = N[C@@H](CC1CCCCC1)C(=O)O
Tests used:
[1] = molecular target: T1, uPAR•uPA interaction (Homo sapiens, UniProt Q03405); experiment: SPR competition assay of the uPAR•uPA interaction; assay type: binding; details: for IC50: competition of uPAR•uPA interaction, 2 nM uPAR, 20 °C, n = 3
T1 construct: Recombinant human uPAR^1–283 was expressed; made in house; host or cells: Drosophila melanogaster S2 cells
Experimental: The IC50-values of antagonistic peptides on the uPAR•uPA interaction were determined with SPR using a Biacore T200™ or Biacore 3000™ instruments (Cytiva) essentially as described[4],[56],[77]. In brief, we immobilized high levels of pro-uPA^S356A (0.1 pmol pro-uPA/mm^2) on a CM5 sensor chip via amine coupling. The experiments were conducted by injecting 2 nM uPAR in presence of a threefold dilution series of a given antagonistic peptide for 300 s with a flow rate of 50 µL/min at 20 °C. The high immobilization levels result in binding conditions that are entirely controlled by mass transport limitations (MTL). Accordingly, the observed association rates (vobs) are directly proportional to the concentrations of binding-active uPAR in solution. To determine the IC50, we also measured a standard curve of uPAR binding (a twofold dilution series of 0.06 to 2 nM uPAR, linear due to MTL). The running buffer was 10 mM HEPES, 150 mM NaCl, 3 mM EDTA, and 0.05% (v/v) surfactant P-20 at pH 7.4, and the regeneration buffer was 0.1 M acetic acid in 0.5 M NaCl.

[2] = molecular target: T2, uPAR (Homo sapiens, UniProt Q03405); experiment: Nano-DSF thermal stability of uPAR•peptide complexes; details: for Tm (apparent melting temperature of uPAR•peptide complex): 15 µM uPAR, 30 µM peptide, PBS pH 7.4, n = 3
T2 construct: Recombinant human uPAR^1–283 was expressed; made in house; host or cells: Drosophila melanogaster S2 cells
Experimental: The thermal stability of the uPAR•peptide complexes was analyzed with Nano-DSF using a Prometheus NT.48™ (Nanotemper). uPAR (15 µM) was mixed with twofold excess of peptide (30 µM) in PBS pH 7.4 and incubated for 15 min at RT to ensure complex formation. Samples containing either 15 µM uPAR or 30 µM of each peptide were included as controls. The samples were loaded into standard capillaries and in triplicates. To unfold the proteins, the samples were exposed to an increasing temperature gradient from 20 to 95 °C with a ramping rate of 1 °C/min. The excitation power was set to 50% (Ex.280 nm) and the fluorescence emission collected at 330 nm and 350 nm. The melting temperatures of the complexes were determined in the PR.ThermControl software (Nanotemper) from the first derivative of the fluorescence ratio (350 nm/330 nm).

[3] = molecular target: T2, uPAR; experiment: SPR real-time binding kinetics, peptides in solution and immobilised uPAR
Experimental: The real-time binding kinetics of uPAR•peptide interactions were measured with SPR using a Biacore T200™(Cytiva); essentially as described in[56],[77]. In brief, uPAR was covalently immobilised on a CM5 sensor chip via amine coupling resulting in a surface density of 1157–1581 RU (~ 33–44 fmol/mm^2). The binding kinetics for the peptides to immobilised uPAR were measured using a single cycle protocol. In this setup, peptides were injected as five serial two-fold dilutions with a contact time of 200 s. After the last analyte injection, the dissociation time was set to 1000 s. The sensor chip was regenerated with two consecutive injections of 0.1 M acetic acid in 0.5 M NaCl. All experiments were conducted at 20 °C with a flow rate of 50 µL/min in 10 mM HEPES, 150 mM NaCl, 3 mM EDTA, and 0.05% (v/v) surfactant P-20 at pH 7.4. The kinetic rate constants (kon and koff) were determined by non-linear regression fitting of the curves to the simple bimolecular interaction model (BiacoreT200 Evaluation™ 3.0 software).

[4] = single cycle SPR, immobilised uPAR, 20 °C
[5] = single cycle SPR, immobilised uPAR, 20 °C, 1:1 model
[6] = single cycle SPR, immobilised uPAR, 20 °C, read-out: kon
[7] = [63Cu]-DOTA labelled peptides, single-cycle SPR

T2 sequence (Q03405 23-305): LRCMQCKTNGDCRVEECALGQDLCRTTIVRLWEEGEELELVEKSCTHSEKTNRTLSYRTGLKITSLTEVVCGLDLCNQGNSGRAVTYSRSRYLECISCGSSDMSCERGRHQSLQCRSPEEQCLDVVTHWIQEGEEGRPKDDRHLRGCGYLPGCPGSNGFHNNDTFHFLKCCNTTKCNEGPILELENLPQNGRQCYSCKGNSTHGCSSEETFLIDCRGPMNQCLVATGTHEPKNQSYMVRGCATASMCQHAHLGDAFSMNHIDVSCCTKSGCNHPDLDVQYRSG
T1 sequence (Q03405 23-305): as above

SMILES	IC50 [1] [nM]	Tm (apparent melting temperature of uPAR•peptide complex) [2]	increase in apparent Tm ([2]; DOTA-conjugated peptides with spacer, compared to (4b))	koff [3, 4] [s⁻¹]	Kd [3, 5] [nM]	kon [3, 6] [M⁻¹ s⁻¹]	IC50 of DOTA-conjugated peptide compared to unconjugated peptide ([1]; (1b) vs (1), (8b) vs (8))	Kd [3, 7] [nM]	koff [3, 7] [s⁻¹]	kon [3, 7]	reduction of affinity on DOTA-conjugation ([3]; real-time binding kinetics, vs unconjugated peptides)	increase in potency ([1]; compared to (4)) [fold]	increase in potency ([1]; compared to (5)) [fold]	decrease in apparent Tm on introduction of spacer ([2]; (4) vs (1), (6) vs (3)) [°C]	increase in thermal stability (apparent Tm) ([2]; disulfide-bonded peptide compared to linear peptide (4)) [°C]	association rate constant (kon) compared to (4) [3]	dissociation rate constant (koff) compared to (4) [3]	increase in apparent Tm ([2]; DOTA-conjugated peptides, compared to (1b))
CC(C)C[C@@H]1NC(=O)[C@H](Cc2ccc(O)cc2)NC(=O)[C@H](NC(=O)[C@@H](CO)NC(=O)[C@H](Cc2ccccc2)NC(=O)[C@H](CC2CCCCC2)NC(=O)[C@H](CC(=O)O)NC(=O)CNC(=O)CNC(=O)[C@@H](CO)NC(=O)CNC(=O)[C@H](CCC(=O)O)NC(=O)[C@H](CCC(=O)O)NC(=O)CN2CCN(CC(=O)O)CCN(CC(=O)O)CCN(CC(=O)O)CC2)CSSC[C@@H](C(=O)O)NC(=O)[C@H](Cc2c[nH]c3ccccc23)NC1=O [6b] ({DOTA}-EEG[dS]GGD[Cha]F[dS][dC]YLWC-OH; disulfide 11-15)	15.8 ± 0.4	61.3 ± 0.4 °C	6–14 °C	0.00977 ± 1e-05	20.3	481000 ± 1000	–	–	–	–	–	–	–	–	–	–	–	–
CC(C)C[C@H](NC(=O)[C@H](Cc1ccc(O)cc1)NC(=O)[C@@H](CCCNC(=N)N)NC(=O)[C@@H](CO)NC(=O)[C@H](Cc1ccccc1)NC(=O)[C@H](CC1CCCCC1)NC(=O)[C@H](CC(=O)O)NC(=O)CN1CCN(CC(=O)O)CCN(CC(=O)O)CCN(CC(=O)O)CC1)C(=O)N[C@@H](Cc1c[nH]c2ccccc12)C(=O)N[C@@H](CO)C(=O)O [1b]	48 ± 2	58.8 °C	–	0.00557 ± 1e-05	26.9	207000 ± 1000	four to fivefold higher	86.5	0.0175 ± 0.0003	2.02 ± 0.03 105 M-1 s-1	8–11 fold	–	–	–	–	–	–	–
CC(C)C[C@@H]1NC(=O)[C@H](Cc2ccc(O)cc2)NC(=O)[C@H](NC(=O)[C@@H](CO)NC(=O)[C@H](Cc2ccccc2)NC(=O)[C@H](CC2CCCCC2)NC(=O)[C@H](CC(=O)O)NC(=O)CNC(=O)CNC(=O)[C@@H](CO)NC(=O)CNC(=O)[C@H](CCC(=O)O)NC(=O)[C@@H](N)CCC(=O)O)CSSC[C@@H](C(=O)O)NC(=O)[C@H](Cc2c[nH]c3ccccc23)NC1=O [compound 6] (H-EEG[dS]GGD[Cha]F[dS][dC]YLWC-OH; disulfide 11-15; N-terminus assumed)	–	60.6 °C and 60.6 ± 0.7 °C	–	0.01033 ± 3e-05	–	611000 ± 3000	–	–	–	–	–	1.4	11	10	5	improved ~ twofold	~ twofold impairment	–
CC(C)C[C@H](NC(=O)[C@H](Cc1ccc(O)cc1)NC(=O)[C@@H](CCCNC(=N)N)NC(=O)[C@@H](CO)NC(=O)[C@H](Cc1ccccc1)NC(=O)[C@H](CC1CCCCC1)NC(=O)[C@H](CC(=O)O)NC(=O)CNC(=O)CNC(=O)[C@@H](CO)NC(=O)CNC(=O)[C@H](CCC(=O)O)NC(=O)[C@H](CCC(=O)O)NC(=O)CN1CCN(CC(=O)O)CCN(CC(=O)O)CCN(CC(=O)O)CC1)C(=O)N[C@@H](Cc1c[nH]c2ccccc12)C(=O)N[C@@H](CO)C(=O)O [4b] ({DOTA}-EEG[dS]GGD[Cha]F[dS][dR]YLWS-OH)	32.2 ± 0.9	55.6 ± 0.03 °C	–	0.00717 ± 1e-05	33.6	213000 ± 400	–	–	–	–	–	–	–	–	–	–	–	–
CC(C)C[C@@H]1NC(=O)[C@H](Cc2ccc(O)cc2)NC(=O)[C@H](NC(=O)[C@@H](CO)NC(=O)[C@H](Cc2ccccc2)NC(=O)[C@H](CC2CCCCC2)NC(=O)[C@H](CC(=O)O)NC(=O)CN2CCN(CC(=O)O)CCN(CC(=O)O)CCN(CC(=O)O)CC2)CSSC[C@@H](C(=O)O)NC(=O)[C@H](Cc2c[nH]c3ccccc23)NC1=O [3b] ({DOTA}-D[Cha]F[dS][dC]YLWC-OH; disulfide 5-9)	10.9 ± 0.3	~ 70 °C	–	0.0044 ± 1e-05	12.5	352000 ± 1000	–	–	–	–	–	–	–	–	–	–	–	approximately 11 °C
